What was measured:
[1] = molecular target: sphingosine-1-phosphate receptor 1 (S1PR1) (Homo sapiens, UniProt P21453); test: Radioligand binding to sphingosine-1-phosphate receptor 1; settings: test compound 100 nM, 0.2 nM radioligand; for inhibition at 0.1 µM: read-out: % INHIBITION of binding to the SIP1 Receptor
Protocol: The binding of a representative group of compounds of this invention to sphingosine-1-phosphate receptor 1 (S1PR1) was determined by a published procedure (Rosenberg et al., 2016). In this assay, the test compound at 100 nM concentration was incubated with 0.2 nM radioligand. Active compounds or “hits” are defined as compounds that inhibit radioligand binding by 50% or more. […] This finding is significant because it establishes the 3′,4′-dihydro-2′H-[…]-2-one hybrid scaffold as an entirely new class of ligands for the sphingosine-1-phosphate receptors.

[2] = system: renal cancer cell lines; test: NCI-60 screen, renal cell lines; format: cell-based, human; settings: Homo sapiens, NCI-60 preliminary screening, read-out: Percent (%) Inhibition of Cancer Cell Line, Renal Cell
Protocol: (§1) Screening for Anticancer Activity—The NCI-60 panel: Representative compounds of the invention were subjected to anticancer testing in the National Cancer Institute (NCI) 60 screen. In this screen compounds are tested on a panel of sixty human cancer cell lines chosen from the following cancers: leukemia, nonsmall cell lung cancer (NSCLC), colon, melanoma, central nervous system (CNS), ovarian, renal, prostate and breast. The assay method is found on the NCI website (dtp.cancer.gov/discovery_development/nci-60/methodology.htm). In the NCI-60 assay, test compounds undergo preliminary screening at 10 μM concentration. The data is reported as percent growth relative to “no drug” control; therefore values between 0 and 100% denote growth inhibition.

[3] = system: EMT6 breast cancer cell line; test: Antiproliferative screening on EMT6 cancer cells; format: cell-based; settings: for EMT6 cell proliferation (%) / inhibition of EMT6 cell proliferation: 100 μM; for EMT6 cell proliferation (%): no ligand = 100; for activity at 100 µM: Mus musculus, EMT6, no ligand = 100, read-out: EMT6 cell proliferation (%)
Protocol: Representative compounds were screened tested for antiproliferative activity on the EMT6 breast cancer cell line. Screening was carried out according to published procedures (Zeng et al., 2014). In this screen, compounds were tested at 100 μM concentration.

[4] = system: leukemia cell lines; test: NCI-60 screen, leukemia cell lines; format: cell-based; settings: Homo sapiens, NCI-60 preliminary screening, read-out: Percent (%) Inhibition of Cancer Cell Line, Leukemia
Protocol: as §1

[5] = system: breast cancer cell lines; test: NCI-60 screen, breast cell lines; format: cell-based, human; settings: Homo sapiens, NCI-60 preliminary screening, read-out: Percent (%) Inhibition of Cancer Cell Line, Breast
Protocol: as §1

[6] = system: nonsmall cell lung cancer (NSCLC) cell lines; test: NCI-60 screen, NSCLC cell lines; format: cell-based, human; settings: Homo sapiens, NCI-60 preliminary screening, read-out: Percent (%) Inhibition of Cancer Cell Line, NSCLC
Protocol: as §1

[7] = system: prostate cancer cell lines; test: NCI-60 screen, prostate cell lines; format: cell-based, human; settings: Homo sapiens, Prostate cell, NCI-60 preliminary screening, read-out: Percent (%) Inhibition of Cancer Cell Line, Prostate
Protocol: as §1

[8] = system: ovarian cancer cell lines; test: NCI-60 screen, ovarian cell lines; format: cell-based, human; settings: Homo sapiens, NCI-60 preliminary screening, read-out: Percent (%) Inhibition of Cancer Cell Line, Ovarian
Protocol: as §1

sphingosine-1-phosphate receptor 1 (S1PR1), sequence (P21453 whole entry, species assumed): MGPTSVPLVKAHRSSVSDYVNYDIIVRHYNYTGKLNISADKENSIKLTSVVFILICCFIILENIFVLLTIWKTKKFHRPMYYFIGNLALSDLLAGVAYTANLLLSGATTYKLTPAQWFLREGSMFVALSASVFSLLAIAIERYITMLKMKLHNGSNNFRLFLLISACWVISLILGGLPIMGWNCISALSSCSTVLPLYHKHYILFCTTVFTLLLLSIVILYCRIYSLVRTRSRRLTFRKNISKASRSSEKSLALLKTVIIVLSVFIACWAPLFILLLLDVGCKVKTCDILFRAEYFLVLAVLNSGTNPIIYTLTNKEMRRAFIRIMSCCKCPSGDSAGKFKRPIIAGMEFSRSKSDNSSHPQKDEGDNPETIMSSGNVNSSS

Row | Structure (SMILES) | inhibition at 0.1 µM [1] | activity at 100 µM [3] | other results
1 | O=C1Nc2ccc(Cl)cc2C12NCCc1cc(O)c(O)cc12 (centres unmarked) [Compound 3b, 5-Chloro-6′,7′-dibydroxy-3′,4′-dihydro-2′H-spiro[indoline-3,1′-isoquinolin]-2-one] |  |  | % INHIBITION of binding to the SIP1 Receptor [1]: 34.2%
2 | Cc1ccc(CN2C(=O)C3(NCCc4cc(O)ccc43)c3cc(Cl)ccc32)cc1 (centres unmarked) [Compound 2m, 5-Chloro-6′-hydroxy-1-(4-methylbenzyl)-3′,4′-dihydro-2′ spiro[indoline-3,1′-isoquinolin]-2-one] |  |  | % INHIBITION of binding to the SIP1 Receptor [1]: 52.4%; EMT6 cell proliferation (%) [3]: 72.26%
3 | O=C1N(Cc2ccc(Cl)cc2)c2ccccc2C12NCCc1cc(O)ccc12 (centres unmarked) [Compound 2e, 1-(4-Chlorobenzyl)-6′-hydroxy-3′,4′-dihydro-2′H-spiro[indoline-3,1′-isoquinolin]-2-one] |  | 72.2% | 
4 | O=C1N(Cc2ccc(Cl)c(Cl)c2)c2ccccc2C12NCCc1cc(O)ccc12 (centres unmarked) [Compound 2g, 1-(3,4-Dichlorobenzyl)-6′-hydroxy-3′,4′-dihydro-2′H-spiro[indoline-3,1′-isoquinolin]-2-one] |  | 56.5% | inhibition at 10 µM [5]: 13%; inhibition at 10 µM [6]: 25%; inhibition at 10 µM [4]: 19%; inhibition at 10 µM [2]: 22 to 36%; inhibition at 10 µM [7]: 19%; inhibition of EMT6 cell proliferation [3]: as much as fifty percent
5 | O=C1Nc2ccc(Cl)cc2C12NCCc1cc(O)ccc12 (centres unmarked) [Compound 2b, 5-Chloro-6′-hydroxy-3′,4′-dihydro-2′H-spiro[indoline-3,1′-isoquinolin]-2-one] |  | 109% | inhibition at 10 µM [6]: 17%; inhibition at 10 µM [2]: 17%
6 | O=C1N(Cc2ccc(F)cc2)c2ccc(Cl)cc2C12NCCc1cc(O)ccc12 (centres unmarked) [Compound 2k, 5-Chloro-1-(4-fluorobenzyl)-6′-hydroxy-3′,4′-dihydro-2′H-spiro[indoline-3,1′-isoquinolin]-2-one] |  | 131% | 
7 | O=C1N(Cc2ccccc2[N+](=O)[O-])c2ccccc2C12NCCc1cccc(O)c12 (centres unmarked) [Compound 1i, 8-Hydroxy-1-(2-nitrobenzyl)-3′,4′-dihydro-2′H-spiro[indoline-3,1′-isoquinolin]-2-one] |  |  | % INHIBITION of binding to the SIP1 Receptor [1]: 35.4%; EMT6 cell proliferation (%) [3]: 108.20%
8 | O=C1Nc2c(Br)cc(Br)cc2C12NCCc1cccc(O)c12 (centres unmarked) [Compound 1c, 5,7-Dibromo-8′-hydroxy-3′,4′-dihydro-2′H-spiro[indoline-3,1′-isoquinolin]-2-one] |  | 87.6% | 
9 | O=C1N(Cc2ccc(F)cc2)c2ccccc2C12NCCc1cc(O)ccc12 (centres unmarked) [Compound 2d, 1-(4-Fluorobenzyl)-6′-hydroxy-3′,4′-dihydro-2′H-spiro[indolline-3,1′-isoquinolin]-2-one] |  |  | EMT6 cell proliferation (%) [3]: 123.61%
10 | O=C1Nc2ccccc2C12NCCc1cc(O)c(O)cc12 (centres unmarked) [Compound 3a, 6′,7′-Dihydroxy-3′,4′-dihydro-2′H-spiro[indoline-3,1′-isoquinolin]-2-one] |  | 91.2% | 
11 | O=C1N(Cc2ccccc2[N+](=O)[O-])c2ccccc2C12NCCc1cc(O)ccc12 (centres unmarked) [Compound 2i, 6′-Hydroxy-1-(2-nitrobenzyl)-3′,4′-dihydro-2′H-spiro[indoline-3,1′-isoquinolin]-2-one] |  | 98.5% | 
12 | COc1ccc2c(c1)CCNC21C(=O)Nc2ccc(Cl)cc21 (centres unmarked) [Compound 4b, 5-Chloro-6′-methoxy-3′,4′-dihydro-2′H-spiro[indoline-3,1′-isoquinolin]-2-one] |  | 142% | inhibition at 10 µM [2]: 23 to 30%
13 | Cc1ccc(CN2C(=O)C3(NCCc4cc(O)ccc43)c3ccccc32)cc1 (centres unmarked) [Compound 2h, 6′-Hydroxy-1-(4-methylbenzyl)-3′,4′-dihydro-2′H-spiro[indoline-3,1′-isoquinolin]-2-one] |  | 132% | inhibition at 10 µM [6]: 32%; inhibition at 10 µM [4]: 24%; inhibition at 10 µM [2]: 25%
14 | O=C1N(Cc2ccc(Br)cc2)c2ccccc2C12NCCc1cc(O)ccc12 (centres unmarked) [Compound 2f, 1-(4-bromobenzyl)-6′-hydroxy-3′,4′-dihydro-2′H-spiro[indoline-3,1′-isoquinolin]-2-one] |  | 41.4% | inhibition of EMT6 cell proliferation [3]: as much as fifty percent

More lines, main results first:

Row | inhibition at 0.1 µM [1] | Structure (SMILES) | activity at 100 µM [3] | other results
15 | 41.5% | COc1ccc2c(c1)CCNC21C(=O)N(Cc2ccc(F)cc2)c2ccccc21 (centres unmarked) [Compound 4d, 6′-Methoxy-1-(4-fluorobenzyl)-3′,4′-dihydro-2′H-spiro[indoline-3,1′-isoquinolin]-2-one] |  | 
16 | 39.1% | COc1cc2c(cc1OC)C1(NCC2)C(=O)Nc2ccccc21 (centres unmarked) [Compound 5a, 6′,7′-Dimethoxy-3′,4′-dihydro-2′H-spiro[indoline-3,1′-isoquinolin]-2-one] |  | inhibition at 10 µM [2]: 25 to 37%
17 | 38.4% | COc1cc2c(c(OC)c1OC)C1(NCC2)C(=O)Nc2ccccc21 (centres unmarked) [Compound 6a, 6′,7′,8′-Trimethoxy-3′,4′-dihydro-2′H-spiro[indoline-3,1′-isoquinolin]-2-one] |  | inhibition at 10 µM [4]: 22%; inhibition at 10 µM [2]: 22%
18 | 40% | COc1cc2c(cc1OC)C1(NCC2)C(=O)N(Cc2ccc(F)cc2)c2ccccc21 (centres unmarked) [Compound 5d, 1-(4-fluorobenzyl)-6′,7′-dimethoxy-3′,4′-dihydro-2′H-spiro[indoline-3,1′-isoquinolin]-2-one] |  | 
19 | ≥ 50% | O=C1N(Cc2ccc(F)cc2)c2ccc(Cl)cc2C12NCCc1cccc(O)c12 (centres unmarked) [Compound 1k, 5-Chloro-1-(4-fluorobenzyl)-8′-hydroxy-3′,4′-dihydro-2′H-spiro[indoline-3,1′-isoquinolin]-2-one] |  | 
20 | 31.3% | COc1cc2c(c(OC)c1OC)C1(NCC2)C(=O)N(Cc2ccc(C)cc2)c2ccccc21 (centres unmarked) [Compound 6e, 6′,7′,8′-Trimethoxy-1-(4-methylbenzyl)-3′,4′-dihydro-2′H-spiro[indoline-3,1′-isoquinolin]-2-one] |  | 
21 | ≥ 50% | O=C1N(Cc2ccc(Br)cc2)c2ccccc2C12NCCc1cccc(O)c12 (centres unmarked) [Compound 1f, 1-(4-bromobenzyl)-8′-hydroxy-3′,4′-dihydro-2′H-spiro[indoline-3,1′-isoquinolin]-2-one] | 103% | 
22 | ≥ 50% | O=C1N(Cc2ccc(Cl)cc2)c2ccc(Cl)cc2C12NCCc1cccc(O)c12 (centres unmarked) [Compound 1l, 5-Chloro-1-(4-chlorobenzyl)-8′-hydroxy-3′,4′-dihydro-2′H-spiro[indoline-3,1′-isoquinolin]-2-one] |  | 
23 | ≥ 50% | Cc1ccc(CN2C(=O)C3(NCCc4cccc(O)c43)c3ccccc32)cc1 (centres unmarked) [Compound 1h, 8′-Hydroxy-1-(4-methylbenzyl)-3′,4′-dihydro-2′H-spiro[indoline-3,1′-isoquinolin]-2-one] | 127% | 
24 | 36.7% | COc1cc2c(c(OC)c1OC)C1(NCC2)C(=O)Nc2c(Br)cc(Br)cc21 (centres unmarked) [Compound 6c, 5,7-Dibromo-6′,7′,8′-trimethoxy-3′,4′-dihydro-2′H-spiro[indoline-3,1′-isoquinolin]-2-one] |  | 
25 | ≥ 50% | O=C1N(Cc2ccc(Cl)cc2)c2ccc(Cl)cc2C12NCCc1cc(O)ccc12 (centres unmarked) [Compound 2l, 5-Chloro-1-(4-chlorobenzyl)-6′-hydroxy-3′,4′-dihydro-2′H-spiro[indoline-3,1′-isoquinolin]-2-one] | 37.2% | inhibition of EMT6 cell proliferation [3]: as much as fifty percent
26 | 41.1% | COc1cc2c(c(OC)c1OC)C1(NCC2)C(=O)Nc2ccc(Cl)cc21 (centres unmarked) [Compound 6b, 5-Chloro-6′,7′,8′-trimethoxy-3′,4′-dihydro-2′H-spiro[indoline-3,1′-isoquinolin]-2-one] |  | inhibition at 10 µM [8]: 20%; inhibition at 10 µM [6]: 20%; inhibition at 10 µM [2]: 28 to 31%
27 | ≥ 50% | COc1cc2c(c(OC)c1OC)C1(NCC2)C(=O)N(Cc2ccc(F)cc2)c2ccccc21 (centres unmarked) [Compound 6d, 1-(4-Fluorobenzyl)-6′,7′,8′-trimethoxy-3′,4′-dihydro-2′H-spiro[indoline-3,1′-isoquinolin]-2-one] |  | 
28 | 36.3% | COc1ccc2c(c1)CCNC21C(=O)Nc2c(Br)cc(Br)cc21 (centres unmarked) [Compound 4c, 5,7-Dibromo-6′-methoxy-3′,4′-dihydro-2′H-spiro[indoline-3,1′-isoquinolin]-2-one] |  | 

Source: patent publication US20220267329A1, “Dihydro-Spiro[Indoline-3:1'-Isoquinolin]-2-Ones and Their Analogues and Derivatives and Methods of Treating Cancer and Other Diseases” (The University of Buea, priority 2019, published 2022)
